Here are results for 20 compounds from patent US9670227B2, “Thienopyrimidine derivatives, a process for their preparation and pharmaceutical compositions containing them” (LES LABORATOIRES SERVIER, priority 2013, dated 2017).

This assay concerns the target Mcl-1 protein (UniProtKB primary accession number: Q07820) (Homo sapiens, UniProt Q07820). Briefly: Inhibition of Mcl-1 by fluorescence polarisation, Method 1. It counts as binding. The settings on record: fluorescence polarisation test; Method 2 values are underlined in the patent (underlining not visible here); read-out: IC50 (M) Mcl-1 FP. How it is done:
The relative binding potency of each compound was determined via Fluorescence Polarisation (FP).
An 11 point serial dilution of each compound was prepared in DMSO and 2 μl transferred into flat bottomed, low binding, 384-well plate (final DMSO concentration 5%). 38 μl of buffer (10 mM 4-(2-hydroxyethyl)-1-piperazineethanesulfonic acid [HEPES], 150 mM NaCl, 0.05% Tween 20, pH 7.4), containing the Fluorescein labelled ligand (final concentration 1 nM) and Mcl-1 protein (final concentration 5 nM) was then added.
In general terms: In fluorescence polarisation assays a small probe gives low polarisation when free and higher when bound to something large.

Sequence of Mcl-1 protein (Q07820 whole entry): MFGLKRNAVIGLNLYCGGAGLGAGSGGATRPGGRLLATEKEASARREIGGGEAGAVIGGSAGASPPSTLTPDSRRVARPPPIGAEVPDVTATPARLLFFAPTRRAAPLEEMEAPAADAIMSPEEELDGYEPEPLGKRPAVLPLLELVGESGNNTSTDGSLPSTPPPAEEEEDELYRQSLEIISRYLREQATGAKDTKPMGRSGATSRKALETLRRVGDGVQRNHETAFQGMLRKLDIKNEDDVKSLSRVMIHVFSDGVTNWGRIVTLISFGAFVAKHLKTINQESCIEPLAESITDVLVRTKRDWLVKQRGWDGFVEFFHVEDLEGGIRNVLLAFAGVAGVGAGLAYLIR

For `COc1ccccc1-c1nccc(COc2ccccc2CC(Oc2ncnc3sc(-c4ccc(F)cc4)c(-c4ccc(OCCN(C)C)c(Cl)c4C)c23)C(=O)O)n1` [Example 135, (2R)-2-{[(5Sa)-5-{3-chloro-4-[2-(dimethylamino)ethoxy]-2-methylphenyl}-6-(4-fluorophenyl)thieno[2,3-d]pyrimidin-4-yl]oxy}-3-(2-{[2-(2-methoxyphenyl)pyrimidin-4-yl]methoxy}phenyl)propanoic acid], the IC50 was 8.6e-09 M.

Take `Cc1c(-c2c(-c3ccc(F)cc3)sc3ncnc(OC(Cc4ccccc4OCc4cnccn4)C(=O)O)c23)ccc(OCCN2CCOCC2)c1Cl` [Example 148, (2R)-2-{[(5Sa)-5-{3-chloro-2-methyl-4-[2-(morpholin-4-yl)ethoxy]phenyl}-6-(4-fluorophenyl)thieno[2,3-d]pyrimidin-4-yl]oxy}-3-[2-(pyrazin-2-ylmethoxy)phenyl]propanoic acid]: the IC50 is 3.1e-08 M.

As to `COc1ccccc1CC(Oc1ncnc2sc(-c3ccc(F)o3)c(-c3ccc(OCCN4CCN(C)CC4)c(Cl)c3C)c12)C(=O)O` [Example 149, (2R)-2-{[(5Sa)-5-{3-chloro-2-methyl-4-[2-(4-methylpiperazin-1-yl)ethoxy]phenyl}-6-(5-fluorofuran-2-yl)thieno[2,3-d]pyrimidin-4-yl]oxy}-3-(2-methoxyphenyl)propanoic acid], the IC50 was 1.2e-08 M.

On to `Cc1c(-c2c(-c3ccc(F)o3)sc3ncnc(OC(Cc4ccccc4OCC4CCCO4)C(=O)O)c23)ccc(OCCN2CCN(C)CC2)c1Cl` [Example 150, (2R)-2-{[(5Sa)-5-{3-chloro-2-methyl-4-[2-(4-methylpiperazin-1-yl)ethoxy]phenyl}-6-(5-fluorofuran-2-yl)thieno[2,3-d]pyrimidin-4-yl]oxy}-3-{2-[(2R)-tetrahydrofuran-2-ylmethoxy]phenyl}propanoic acid], for which the IC50 was 9.3e-09 M.

Consider `Cc1c(-c2c(-c3ccc(F)o3)sc3ncnc(OC(Cc4ccccc4OCC(F)(F)F)C(=O)O)c23)ccc(OCCN2CCN(C)CC2)c1Cl` [Example 158, (2R)-2-{[(5Sa)-5-{3-chloro-2-methyl-4-[2-(4-methylpiperazin-1-yl)ethoxy]phenyl}-6-(5-fluorofuran-2-yl)thieno[2,3-d]pyrimidin-4-yl]oxy}-3-[2-(2,2,2-trifluoroethoxy)phenyl]propanoic acid], for which the IC50 stood at 4.6e-09 M.

As for `Cc1c(-c2c(-c3ccc(F)o3)sc3ncnc(OC(Cc4ccccc4OCc4ccnc(-c5ccncc5)n4)C(=O)O)c23)ccc(OCCN2CCN(C)CC2)c1Cl` [Example 172, (2R)-2-{[(5Sa)-5-{3-chloro-2-methyl-4-[2-(4-methylpiperazin-1-yl)ethoxy]phenyl}-6-(5-fluorofuran-2-yl)thieno[2,3-d]pyrimidin-4-yl]oxy}-3-(2-{[2-(pyridin-4-yl)pyrimidin-4-yl]methoxy}phenyl)propanoic acid], the IC50 was 3e-09 M.

With `COCCc1nccc(COc2ccccc2CC(Oc2ncnc3sc(-c4ccc(F)o4)c(-c4ccc(OCCN5CCN(C)CC5)c(Cl)c4C)c23)C(=O)O)n1` [Example 174, (2R)-2-{[(5Sa)-5-{3-chloro-2-methyl-4-[2-(4-methylpiperazin-1-yl)ethoxy]phenyl}-6-(5-fluorofuran-2-yl)thieno[2,3-d]pyrimidin-4-yl]oxy}-3-(2-{[2-(2-methoxyethyl)pyrimidin-4-yl]methoxy}phenyl)propanoic acid], the IC50 came out at 2.3e-09 M.

In the case of `Cc1c(-c2c(-c3ccc(F)o3)sc3ncnc(OC(Cc4ccccc4OCc4ccnc(N5CCOCC5)n4)C(=O)O)c23)ccc(OCCN2CCN(C)CC2)c1Cl` [Example 175, (2R)-2-{[(5Sa)-5-{3-chloro-2-methyl-4-[2-(4-methylpiperazin-1-yl)ethoxy]phenyl}-6-(5-fluorofuran-2-yl)thieno[2,3-d]pyrimidin-4-yl]oxy}-3-(2-{[2-(morpholin-4-yl)pyrimidin-4-yl]methoxy}phenyl)propanoic acid], the IC50 amounted to 3.9e-09 M.

On to `COc1nccc(COc2ccccc2CC(Oc2ncnc3sc(-c4ccc(F)o4)c(-c4ccc(OCCN5CCN(C)CC5)c(Cl)c4C)c23)C(=O)O)n1` [Example 176, (2R)-2-{[(5Sa)-5-{3-chloro-2-methyl-4-[2-(4-methylpiperazin-1-yl)ethoxy]phenyl}-6-(5-fluorofuran-2-yl)thieno[2,3-d]pyrimidin-4-yl]oxy}-3-{2-[(2-methoxypyrimidin-4-yl)methoxy]phenyl}propanoic acid], for which the IC50 stood at 3.1e-09 M.

On to `Cc1c(-c2c(-c3ccc(F)o3)sc3ncnc(OC(Cc4ccccc4OCc4ccnn4C)C(=O)O)c23)ccc(OCCN2CCN(C)CC2)c1Cl` [Example 180, (2R)-2-{[(5Sa)-5-{3-chloro-2-methyl-4-[2-(4-methylpiperazin-1-yl)ethoxy]phenyl}-6-(5-fluorofuran-2-yl)thieno[2,3-d]pyrimidin-4-yl]oxy}-3-{2-[(1-methyl-1H-pyrazol-5-yl)methoxy]phenyl}propanoic acid], for which the IC50 was found to be 8.9e-09 M.

For `Cc1c(-c2c(-c3ccc(F)o3)sc3ncnc(OC(Cc4ccccc4OCc4ccnn4C(C)(C)C)C(=O)O)c23)ccc(OCCN2CCN(C)CC2)c1Cl` [Example 181, (2R)-3-{2-[(1-tert-butyl-1H-pyrazol-5-yl)methoxy]phenyl}-2-{[(5Sa)-5-{3-chloro-2-methyl-4-[2-(4-methylpiperazin-1-yl)ethoxy]phenyl}-6-(5-fluorofuran-2-yl)thieno[2,3-d]pyrimidin-4-yl]oxy}propanoic acid], the IC50 came out at 4.8e-09 M.

Turning to `Cc1c(-c2c(-c3ccc(F)o3)sc3ncnc(OC(Cc4ccccc4OCc4ccnn4C(C)C)C(=O)O)c23)ccc(OCCN2CCN(C)CC2)c1Cl` [Example 182, (2R)-2-{[(5Sa)-5-{3-chloro-2-methyl-4-[2-(4-methylpiperazin-1-yl)ethoxy]phenyl}-6-(5-fluorofuran-2-yl)thieno[2,3-d]pyrimidin-4-yl]oxy}-3-(2-{[1-(propan-2-yl)-1H-pyrazol-5-yl]methoxy}phenyl)propanoic acid], the IC50 amounted to 4.4e-09 M.

Regarding `CCn1nccc1COc1ccccc1CC(Oc1ncnc2sc(-c3ccc(F)o3)c(-c3ccc(OCCN4CCN(C)CC4)c(Cl)c3C)c12)C(=O)O` [Example 184, (2R)-2-{[(5Sa)-5-{3-chloro-2-methyl-4-[2-(4-methylpiperazin-1-yl)ethoxy]phenyl}-6-(5-fluorofuran-2-yl)thieno[2,3-d]pyrimidin-4-yl]oxy}-3-{2-[(1-ethyl-1H-pyrazol-5-yl)methoxy]phenyl}propanoic acid], the IC50 turned out to be 6e-09 M.

Regarding `CCCCn1nccc1COc1ccccc1CC(Oc1ncnc2sc(-c3ccc(F)o3)c(-c3ccc(OCCN4CCN(C)CC4)c(Cl)c3C)c12)C(=O)O` [Example 188, (2R)-3-{2-[(1-butyl-1H-pyrazol-5-yl)methoxy]phenyl}-2-{[(5Sa)-5-{3-chloro-2-methyl-4-[2-(4-methylpiperazin-1-yl)ethoxy]phenyl}-6-(5-fluorofuran-2-yl)thieno[2,3-d]pyrimidin-4-yl]oxy}propanoic acid], the IC50 was 6.4e-09 M.

Regarding `Cc1c(-c2c(-c3ccc(F)o3)sc3ncnc(OC(Cc4ccccc4OCc4cnccn4)C(=O)O)c23)ccc(OCCN2CCN(C)CC2)c1Cl` [Example 189, (2R)-2-{[(5Sa)-5-{3-chloro-2-methyl-4-[2-(4-methylpiperazin-1-yl)ethoxy]phenyl}-6-(5-fluorofuran-2-yl)thieno[2,3-d]pyrimidin-4-yl]oxy}-3-[2-(pyrazin-2-ylmethoxy)phenyl]propanoic acid], the IC50 amounted to 5.5e-09 M.

As for `COc1ccccc1CC(Oc1ncnc2sc(-c3ccco3)c(-c3ccc(OCCN4CCN(C)CC4)c(Cl)c3C)c12)C(=O)O` [Example 209, (2R)-2-{[(5Sa)-5-{3-chloro-2-methyl-4-[2-(4-methylpiperazin-1-yl)ethoxy]phenyl}-6-(furan-2-yl)thieno[2,3-d]pyrimidin-4-yl]oxy}-3-(2-methoxyphenyl)propanoic acid], the IC50 worked out at 9.8e-09 M.

For the compound `Cc1c(-c2c(-c3ccco3)sc3ncnc(OC(Cc4ccccc4OC4CCCc5cccnc54)C(=O)O)c23)ccc(OCCN2CCN(C)CC2)c1Cl` [Example 213, (2R)-2-{[(5Sa)-5-{3-chloro-2-methyl-4-[2-(4-methylpiperazin-1-yl)ethoxy]phenyl}-6-(furan-2-yl)thieno[2,3-d]pyrimidin-4-yl]oxy}-3-[2-(5,6,7,8-tetrahydroquinolin-8-yloxy)phenyl]propanoic acid], the IC50 was determined as 1.8e-08 M.

Regarding `Cc1c(-c2c(-c3ccco3)sc3ncnc(OC(Cc4ccccc4OCc4cncn4C)C(=O)O)c23)ccc(OCCN2CCN(C)CC2)c1Cl` [Example 276, (2R)-2-{[(5Sa)-5-{3-chloro-2-methyl-4-[2-(4-methylpiperazin-1-yl)ethoxy]phenyl}-6-(furan-2-yl)thieno[2,3-d]pyrimidin-4-yl]oxy}-3-{2-[(1-methyl-1H-imidazol-5-yl)methoxy]phenyl}propanoic acid], the IC50 amounted to 6.2e-09 M.

Regarding `COc1ccccc1CC(Oc1ncnc2sc(-c3ccco3)c(-c3ccc(OCCN4CC[N+](C)([O-])CC4)c(Cl)c3C)c12)C(=O)O` [Example 296, (2R)-2-{[(5Sa)-5-{3-chloro-2-methyl-4-[2-(4-methyl-4-oxidopiperazin-1-yl)ethoxy]phenyl}-6-(furan-2-yl)thieno[2,3-d]pyrimidin-4-yl]oxy}-3-(2-methoxyphenyl)propanoic acid], the IC50 came out at 9.3e-09 M.

As to `COc1ccccc1CC(Oc1ncnc2sc(-c3ccco3)c(-c3ccc(OCC[N+]4([O-])CC[N+](C)([O-])CC4)c(Cl)c3C)c12)C(=O)O` [Example 297, (2R)-2-{[(5Sa)-5-{3-chloro-2-methyl-4-[2-(4-methyl-1,4-dioxidopiperazin-1-yl)ethoxy]phenyl}-6-(furan-2-yl)thieno[2,3-d]pyrimidin-4-yl]oxy}-3-(2-methoxyphenyl)propanoic acid], the IC50 is 6.6e-09 M.

What is called IC50 is the point on the concentration scale where inhibition reaches its midpoint.
